In patent publication US11536729B2, “Method of identifying novel protein aggregation inhibitors based on chemical kinetics” (Cambridge Enterprise Limited, priority 2016, dated 2022):

Assays:
Type in all cases: biochemical
[1] = biological target: T1, Aβ42 (Homo sapiens, UniProt P05067); assay: ThT-based Aβ42 aggregation kinetics under quiescent (unseeded) conditions; conditions: for ranking of efficacy within set: 2 μM Aβ42; for change of inhibitory activity relative to parent scaffold: structural comparison among RAR/RXR modulators
T1 construct: The recombinant Aβ (M1-42) peptide; made in house; host or cells: E. coli BL21 Gold (DE3)
Description: Solutions of monomeric peptides were prepared by dissolving the lyophilized Aβ42 peptide in 6 M GuHCl. Monomeric forms were purified from potential oligomeric species and salt using a Superdex 75 10/300 GL column (GE Healthcare) at a flowrate of 0.5 mL/min, and were eluted in 20 mM sodium phosphate buffer, pH 8 supplemented with 200 μM EDTA and 0.02% NaN3. The center of the peak was collected and the peptide concentration was determined from the absorbance of the integrated peak area using ε280=1400 l mol^−1 cm^−1. The obtained monomer was diluted with buffer to the desired concentration and supplemented with 20 μM Thioflavin T (ThT) from a 1 mM stock. All samples were prepared in low binding eppendorf tubes on ice using careful pipetting to avoid introduction of air bubbles. Each sample was then pipetted into multiple wells of a 96-well half-area, low-binding, clear bottom and PEG coating plate (Corning 3881), 80 μL per well.
We verified that the addition of 1% DMSO in the reaction mixture has no effect on Aβ42 aggregation.
Assays were initiated by placing the 96-well plate at 37° C. under quiescent conditions in a plate reader (Fluostar Omega, Fluostar Optima or Fluostar Galaxy, BMGLabtech, Offenburg, Germany). The ThT fluorescence was measured through the bottom of the plate with a 440 nm excitation filter and a 480 nm emission filter. The ThT fluorescence was followed for three repeats of each sample.
The time evolution of the total fibril mass concentration, M(t), is described by the following integrated rate law (30, 32)
[formula] where the kinetic parameters B±, C±, κ, κ∞ and ? are functions of the two ? combinations of the microscopic rate constants k+k2 and knk2, where kn, k+ and k2 are the primary nucleation, elongation and secondary nucleation rate constants, respectively.
The time evolution of the total fibril mass concentration, M(t), is described by the following integrated rate law
[formula] where the kinetic parameters B±, C±, κ, κ∞ and ? are functions of the two combinations of the microscopic rate constants k+k2 and knk2, where kn, k+ and k2 are the primary nucleation, elongation and secondary nucleation rate constants, respectively. Aβ42 alone in 1% DMSO was first modeled to obtain the k+k2 and knk2 combined microscopic rate constants.
With the introduction of different small molecules, the aggregation process can be inhibited by one or more individual microscopic reactions. Microscopic rate constants k+k2 and knk2 were obtained in the presence of the molecules, and compared to the initial values of Aβ42 alone. This comparison allows one to understand which rate was mainly perturbed, as well as the potency of the compounds (by relative changes of their microscopic rates) with respect to each other.
Target sequence in this assay (P05067 671-713): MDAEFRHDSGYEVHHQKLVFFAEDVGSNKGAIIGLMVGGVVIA

[2] = biological target: T1, Aβ42; assay: ThT Aβ42 aggregation kinetics with 10% pre-formed fibril seeds (elongation dominant); conditions: 2 μM Aβ42, 5-fold excess
Description: (§1) Samples were then collected from the wells into low-binding tubes and sonicated for 2 min in a sonicator bath at room temperature. Under the considered conditions (i.e. 4 μM Aβ42), the monomer concentration is negligible at equilibrium (31). The final concentration of fibrils, in monomer equivalents, was considered equal to the initial concentration of monomer. Fibrils were then added to freshly prepared monomer in order to reach either 5% or 10% fibrils final concentration.
(§2) Assays were initiated by placing the 96-well plate at 37° C. under quiescent conditions in a plate reader (Fluostar Omega, Fluostar Optima or Fluostar Galaxy, BMGLabtech, Offenburg, Germany). The ThT fluorescence was measured through the bottom of the plate with a 440 nm excitation filter and a 480 nm emission filter. The ThT fluorescence was followed for three repeats of each sample. […]
Target sequence in this assay (P05067 672-713 limits assumed): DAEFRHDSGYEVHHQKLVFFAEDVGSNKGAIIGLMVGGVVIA

[3] = biological target: T1, Aβ42; assay: ThT Aβ42 aggregation kinetics with 1-5% pre-formed fibril seeds (surface-catalyzed secondary nucleation); conditions: 2 μM Aβ42, 1-5% seeds, 0.5-fold excess
Description: For the seeded experiments, preformed fibrils were prepared just prior to the experiment. Kinetic experiments were set up just as above for a […] Aβ42 samples in 20 mM sodium phosphate buffer, pH 8 with 200 μM EDTA, 0.02% NaN3 and 20 μM ThT. The ThT fluorescence was monitored for 3 hours to verify the formation of fibrils.
as §1, §2
Target sequence in this assay (P05067 672-713 limits assumed): as above
For the seeded experiments, preformed fibrils were prepared just prior to the experiment. […] The ThT fluorescence was monitored for 3 hours to verify the formation of fibrils. […]

SMILES | ranking of efficacy within set [1] | change of inhibitory activity relative to parent scaffold [1] | effect on Aβ42 aggregation of linker variants of bexarotene [1] | further results
COc1ccc(-c2ccc3cc(C(=O)O)ccc3c2)cc1C12CC3CC(CC(C3)C1)C2 [Adapalene] | most effective molecules within Set C |  |  | 
CC1(C)CC=C(C#Cc2ccccc2)c2cc(/C=C/c3ccc(C(=O)O)cc3)ccc21 [BMS493] |  | same effect |  | 
CC1(C)C(=O)C(C)(C)c2cc(C(=O)Nc3ccc(C(=O)O)cc3)ccc21 [BMS753] |  |  |  | delay / effect on Aβ42 aggregation ([1]; 2 μM Aβ42, 3-fold excess): did not show any effect; effect on aggregation kinetics of Aβ42 ([1]; fold-excesses as high as 5): did not show any effect
CC1(C)CC=C(c2cnc3ccccc3c2)c2cc(C(=O)Nc3ccc(C(=O)O)cc3)ccc21 [BMS195614] |  | substantial increase in primary nucleation inhibitory activity |  | 
CC1(C)CCC(C)(C)c2cc(C3(c4ccc5cc(C(=O)O)ccc5c4)SCCS3)ccc21 [MM11253] | most effective molecules within Set C |  |  | 
CC1(C)CCC(C)(C)c2cc(C3(c4ccc(C(=O)O)cc4)OCCO3)ccc21 [SR11237] |  |  | delayed the aggregation of Aβ42 to different extent | 
C/C(=C\c1ccc(C(=O)O)cc1)c1ccc2c(c1)C(C)(C)CCC2(C)C [TTNPB] |  | increase in inhibitory activity | delayed the aggregation of Aβ42 to different extent | 
CC1(C)CCC(C)(C)c2cc(NC(=O)c3ccc(C(=O)O)cc3)ccc21 [Tamibarotene] |  |  | delayed the aggregation of Aβ42 to different extent | 
CCCCCOc1cc2c(cc1-c1cc(/C=C/C(=O)O)ccc1O)C(C)(C)CCC2(C)C [UVI3003] | most effective molecule within Set B |  |  | effect on aggregation kinetics / elongation with 10% fibril seeds [2]: no effect could be observed; decrease of rate of surface-catalyzed secondary nucleation (k2) [3]: 75%
NCCCS(=O)(=O)O [tramiprosate] |  |  |  | effect on Aβ42 aggregation ([1]; even when present in 20-fold excess): no effects
